Measurements reported in patent US9302999B2, “Substituted triazoles as herbicides” (E. I. DU PONT DE NEMOURS AND COMPANY, priority 2012, dated 2016).

Tests used:
Type in all cases: in vivo
[1] = tested on: ryegrass, Italian (Italian ryegrass, Lolium multiflorum); assay: Test D pre-/postemergence: ryegrass, Italian
Method in brief: (§1)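 Visual ratings from 0 (no effect) to 100 (complete control) were made 14–21 days after treatment, relative to controls. Applications were preemergence to seeds in silt loam, or postemergence to 2–18 cm (1–4 leaf) plants in peat-based medium. Compounds were formulated in a surfactant-containing non-phytotoxic solvent.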

[2] = tested on: foxtail, giant (giant foxtail, Setaria faberii); assay: Test E pre-/postemergence: foxtail, giant; conditions: Preemergence, scale 0 to 100
Excerpt: Seeds of plant species selected from corn (Zea mays), soybean (Glycine max), velvetleaf (Abutilon theophrasti), lambsquarters (Chenopodium album), poinsettia, wild (wild poinsettia, Euphorbia heterophylla), pigweed, palmer (palmer pigweed, Amaranthus palmeri), waterhemp (common waterhemp, Amaranthus rudis), smartweed (ladysthumb smartweed, Polygonum persicaria), surinam grass (Brachiaria decumbens), crabgrass, large (large crabgrass, Digitaria sanguinalis), crabgrass, Brazil (Brazilian crabgrass, Digitaria horizontalis), panicum, fall (fall panicum, Panicum dichotomiflorum), foxtail, giant (giant foxtail, Setaria faberii), foxtail, green (green foxtail, Setaria viridis), goosegrass (Eleusine indica), johnsongrass (Sorghum halepense), ragweed (common ragweed, Ambrosia elation), barnyardgrass (Echinochloa crus-galli), sandbur (southern sandbur, Cenchrus echinatus), arrowleaf sida (Sida rhombifolia), ryegrass, Italian (Italian ryegrass, Lolium multiflorum), dayflower, (VA) (Virginia dayflower, Commelina virginica), field bindweed (Convolvulus arvensis), cocklebur (common cocklebur, Xanthium strumarium), morningglory (Ipomoea coccinea), nightshade (eastern black nightshade, Solanum ptycanthum), kochia (Kochia scoparia), nutsedge, yellow (yellow nutsedge, Cyperus esculentus) and beggarticks (hairy beggarticks, Bidens pilosa) were planted into a silt loam soil and treated preemergence with test chemicals formulated in a non-phytotoxic solvent mixture which included a surfactant. At the same time, plants selected from these crop and weed species were planted in pots containing a growing medium comprising spaghnum peat moss, vermiculite, wetting agent and starter nutrients and treated with postemergence applications of some of the test chemicals formulated in the same manner. Plants ranged in height from 2 to 18 cm for postemergence treatments (1- to 4-leaf stage).
Treated plants and controls were maintained in a greenhouse for 14 to 21 days, after which time all species were compared to controls and visually evaluated. Plant response ratings, summarized in Table E, are based on a scale of 0 to 100 where 0 is no effect and 100 is complete control. A dash (-) response means no test result.

[3] = tested on: barnyardgrass (Echinochloa crus-galli); assay: Test E pre-/postemergence: barnyardgrass; conditions: Preemergence, scale 0 to 100
Method in brief: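 Preemergence: seeds sown in silt loam soil and treated with test chemicals in non-phytotoxic solvent with surfactant. Postemergence: plants at 2 to 18 cm (1- to 4-leaf stage) in peat/vermiculite medium were sprayed with the same formulations. After 14 to 21 days in greenhouse, injury was rated visually against controls, 0 (no effect) to 100 (complete control).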

[4] = tested on: canarygrass (Phalaris minor); assay: Test D pre-/postemergence: canarygrass
Method in brief: as §1

[5] = Postemergence, 31 g ai/ha, scale 0 to 100 (0 no effect, 100 complete control)
[6] = Postemergence, 62 g ai/ha, scale 0 to 100 (0 no effect, 100 complete control)
[7] = Postemergence, 125 g ai/ha, scale 0 to 100, 0 no effect, 100 complete control
[8] = Postemergence, 250 g ai/ha, scale 0 to 100 (0 no effect, 100 complete control)
[9] = Preemergence, 31 g ai/ha, scale 0 to 100, 0 no effect, 100 complete control
[10] = Preemergence, 62 g ai/ha, scale 0 to 100
[11] = Preemergence, 125 g ai/ha, scale 0 to 100
[12] = Preemergence, 250 g ai/ha, scale 0 to 100
[13] = Postemergence, 16 g ai/ha, scale 0 to 100

SMILES: FC(F)(F)COc1nn(-c2ccc(C(F)(F)F)cc2)nc1Cc1ccnc(C(F)(F)F)c1 [Compound 14, 4-[[5-(2,2,2-trifluoroethoxy)-2-[4-(trifluoromethyl)phenyl]-2H-1,2,3-triazol-4-yl]methyl]-2-(trifluoromethyl)pyridine]
- Plant response rating: Ryegrass, Italian [1, 5]: 5
- Plant response rating: Ryegrass, Italian [1, 6]: 20
- Plant response rating: Ryegrass, Italian [1, 7]: 25
- Plant response rating: Ryegrass, Italian [1, 8]: 35
- Plant response rating, Ryegrass, Italian [1, 9]: 0
- Plant response rating, Ryegrass, Italian [1, 10]: 25
- Plant response rating, Ryegrass, Italian [1, 11]: 25
- Plant response rating, Ryegrass, Italian [1, 12]: 50
- Plant response rating: Foxtail, Giant ([2]; 16 g ai/ha): 50
- Plant response rating: Foxtail, Giant ([2]; 31 g ai/ha): 75
- Plant response rating: Foxtail, Giant ([2]; 62 g ai/ha): 98
- Plant response rating: Foxtail, Giant ([2]; 125 g ai/ha): 100
- Plant response rating: Foxtail, Giant ([2]; 250 g ai/ha): 100
- Plant response rating: Barnyardgrass ([3]; 16 g ai/ha): 5
- Plant response rating: Barnyardgrass ([3]; 31 g ai/ha): 15
- Plant response rating: Barnyardgrass ([3]; 62 g ai/ha): 35
- Plant response rating: Barnyardgrass ([3]; 125 g ai/ha): 60
- Plant response rating: Barnyardgrass ([3]; 250 g ai/ha): 60
- Plant response rating: Canarygrass [4, 5]: 25
- Plant response rating: Canarygrass [4, 6]: 40
- Plant response rating: Canarygrass [4, 7]: 55
- Plant response rating: Canarygrass [4, 8]: 80
- Plant response rating, Canarygrass [4, 9]: 10
- Plant response rating, Canarygrass [4, 10]: 25
- Plant response rating, Canarygrass [4, 11]: 90
- Plant response rating, Canarygrass [4, 12]: 98

SMILES: COc1nn(-c2ccc(C(F)(F)F)cc2)nc1Cc1ccnc(C(F)(F)F)c1 [Compound 15, 4-[[5-methoxy-2-[4-(trifluoromethyl)phenyl]-2H-1,2,3-triazol-4-yl]methyl]-2-(trifluoromethyl)pyridine]
- Plant response rating: Ryegrass, Italian [1, 5]: 5
- Plant response rating: Ryegrass, Italian [1, 6]: 5
- Plant response rating: Ryegrass, Italian [1, 7]: 10
- Plant response rating: Ryegrass, Italian [1, 8]: 20
- Plant response rating, Ryegrass, Italian [1, 13]: 0
- Plant response rating, Ryegrass, Italian [1, 9]: 0
- Plant response rating, Ryegrass, Italian [1, 10]: 5
- Plant response rating, Ryegrass, Italian [1, 11]: 25
- Plant response rating, Ryegrass, Italian [1, 12]: 70
- Plant response rating: Foxtail, Giant ([2]; 16 g ai/ha): 65
- Plant response rating: Foxtail, Giant ([2]; 31 g ai/ha): 98
- Plant response rating: Foxtail, Giant ([2]; 62 g ai/ha): 100
- Plant response rating: Foxtail, Giant ([2]; 125 g ai/ha): 100
- Plant response rating: Foxtail, Giant ([2]; 250 g ai/ha): 100
- Plant response rating: Barnyardgrass ([3]; 16 g ai/ha): 10
- Plant response rating: Barnyardgrass ([3]; 31 g ai/ha): 50
- Plant response rating: Barnyardgrass ([3]; 62 g ai/ha): 85
- Plant response rating: Barnyardgrass ([3]; 125 g ai/ha): 98
- Plant response rating: Barnyardgrass ([3]; 250 g ai/ha): 100
- Plant response rating: Canarygrass [4, 5]: 35
- Plant response rating: Canarygrass [4, 6]: 40
- Plant response rating: Canarygrass [4, 7]: 50
- Plant response rating: Canarygrass [4, 8]: 80
- Plant response rating, Canarygrass [4, 13]: 25
- Plant response rating, Canarygrass [4, 9]: 25
- Plant response rating, Canarygrass [4, 10]: 80
- Plant response rating, Canarygrass [4, 11]: 90
- Plant response rating, Canarygrass [4, 12]: 100
